Measured values: patent publication US20230248797A1, “Method for preparing medicine with Chinese yam protein extract for treating erectile dysfunction” (priority 2020, published 2023)

How the values were obtained:
TM3 cells = assay: CCK8 cell viability of H2O2 damaged TM3 cells; assay type: cell-based, mouse; conditions: inhibitor pretreated 1 h, then 62.5 μg/mL CYCSE 24 h, 0.4 mM H2O2 2 h
Procedure: TM3 cells: purchased from Shanghai Cell Bank of the Chinese Academy of Sciences. The culture conditions are DMEM/F12+5% horse serum+2.5% fetal bovine serum+1% penicillin-streptomycin, 37° C., 5% CO2 incubator. TM3 cells were placed in a 96-well plate at a density of 3×10^4 cells/mL and divided into 6 groups: control group, H2O2 group, CYCSE group, ERK inhibitor ([…] group, AKT inhibitor ([…] group, and sildenafil group. After the two inhibitors were pretreated for 1 […] was added and processed for 24 h, and 0.4 mM H2O2 was added and processed for 2 h. After the two kinds of cells were treated separately, CCK8 was added and incubated at 37° C. for 1 h. A microplate reader was used to measure absorbance at 450 nm and calculate the cell viability.

[1] = system: ERK and AKT signal pathways in TM3 cells; assay: Western blot of p-ERK/ERK and p-AKT/AKT in TM3 cells; assay type: cell-based, mouse; conditions: H2O2 damaged TM3 cells
Procedure: TM3 cells: purchased from Shanghai Cell Bank of the Chinese Academy of Sciences. The culture conditions are DMEM/F12+5% horse serum+2.5% fetal bovine serum+1% penicillin-streptomycin, 37° C., 5% CO2 incubator. TM3 cells were placed in a 96-well plate at a density of 3×10^4 cells/mL and divided into 6 groups: control group, H2O2 group, CYCSE group, ERK inhibitor ([…] group, AKT inhibitor ([…] group, and sildenafil group. After the two inhibitors were pretreated for 1 […] was added and processed for 24 h, and 0.4 mM H2O2 was added and processed for 2 h. The TM3 cells or the MCECs were placed in 6-well plates, and the CYCSE was added to process for 24 h and 0.4 mM H2O2 to process for 2 h. The cells were collected and washed twice with PBS, wherein supernatant was discarded. The testicular tissue in liquid nitrogen was ground into powder. 200 μL of RIPM lysis solution (containing 1% PMSF) was added to each of the above samples to lyse on ice for 30 min and centrifuge at 12000 r for 10 min at 4° C., wherein supernatant was stored at -20° C. for later use. A BCA protein content detection kit was used to determine protein content in the samples and to adjust protein concentration to the same level. An equal volume of 2× loading buffer was added to an appropriate amount of the extracted protein sample, which was mixed well, boiled for 10 min, and stored at -20° C. […]

testicular leydig cells = assay: Immunohistochemistry of testicular leydig cells (3β-HSD); assay type: in vivo, SD rats; set-up: key: negative (−); weakly positive (+); ranging from negative (−) to weakly positive (+) to strong positive (+++); strong positive (+++); conditions: HCT 10 d + 4.4 mg/kg sildenafil 10 d
Procedure: (§1) SD rats were randomly divided into 5 groups with 10 rats in each group. The SD rats were fed with 25 mg/kg hydrocortisone (HCT) for 10 days to construct a kidney-yang deficiency model, and then gave different concentrations of the CYCSE for 10 days. Specific groups were as follows: control group (distilled water 20 d); kidney-yang deficiency group (HCT 10 d+distilled water 10 d); CYCSE low-concentration group (HCT 10 d+60 mg/kg CYCSE 10 d); CYCSE high-concentration group (HCT 10 d+80 mg/kg CYCSE 10 d); sildenafil group (HCT 10 d+4.4 mg/kg sildenafil 10 d). After treatment, the rats were anesthetized by intraperitoneal injection of 3% sodium pentobarbital.
(§2) Cavernosum tissue and testicular tissue were fixed in 4% paraformaldehyde, and then embedded in paraffin and sectioned. Testicular tissue sections were stained with hematoxylin-eosin method and Masson method respectively. Cavernosum tissue sections were stained with hematoxylin-eosin method. The testicular tissue sections were processed by immunohistochemistry, and testicular leydig cells were labeled with 3β-HSD antibody. A Nikon posture microscope was used to take photos.

[2] = system: primary cavernous endothelial cells (MCECs); assay: CCK8 cell viability of H2O2 damaged MCECs; assay type: cell-based, C57BL/6 mice; conditions: CYCSE 31.3 and 62.5 μg/mL or sildenafil 24 h, then 0.4 mM H2O2 2 h; dose-dependent
Source text: Eight-week-old C57BL/6J mice were sacrificed by cutting necks. Lower abdomen was sterilized with alcohol cotton balls, a lower abdomen incision was made with tweezers and surgical scissors, and the abdominal fascia and foreskin glands were peeled off to expose cavernosum tissue. The cavernosum tissue was separated with surgical scissors and placed in Hank's balanced salt solution containing 10% penicillin-streptomycin, and urethra and neurovascular bundles were removed under microscope to obtain clean cavernosum tissue. The obtain tissue was washed 3 times in PSB containing 10% penicillin-streptomycin, cut into small pieces of 1-2 mm^3 with surgical scissors, and placed at bottoms of a pre-cooled 24-well plate with 2 pieces in each well. Each well was supplemented with 200 μL Matrigel containing 50 ng/mL VEGF-A. The MCECs were cultured in a simulated 3D environment to induce proliferation. Then the MCECs were incubate in a 37° C., 5% CO2 incubator for 14 days until the bottoms of the wells were full. After aspirating the medium, 200 μL Dispase was added to each well for digestion in the incubator for 1 h, and an equal volume of 10 mM EDTA was added to stop the digestion. […] A microplate reader was used to measure absorbance at 450 nm and calculate the cell viability.

[3] = system: sperm of kidney-yang deficiency rats; assay: Sperm count and vitality check; assay type: in vivo, SD rats; conditions: HCT 10 d + 4.4 mg/kg sildenafil 10 d
Procedure: SD rats were randomly divided into 5 groups with 10 rats in each group. The SD rats were fed with 25 mg/kg hydrocortisone (HCT) for 10 days to construct a kidney-yang deficiency model, and then gave different concentrations of the CYCSE for 10 days. Specific groups were as follows: control group (distilled water 20 d); kidney-yang deficiency group (HCT 10 d+distilled water 10 […] low-concentration group (HCT 10 d+60 mg/kg […] high-concentration group (HCT 10 d+80 mg/kg […]); sildenafil group (HCT 10 d+4.4 mg/kg sildenafil 10 d). After treatment, the rats were anesthetized by intraperitoneal injection of 3% sodium pentobarbital. At the end of administration, epididymis samples were collected, excess tissue was removed, and blood was washed away with saline. The samples were fixed with tweezers, so as to cut a tail side of the epididymis longitudinally. The sperm was released in a petri dish containing PBS, and a hemocytometer was used to detect number and viability of the sperm under a microscope after waiting at room temperature for 10 minutes (sperm viability is divided into 4 levels: a) move forward rapidly in a straight line, b) move forward slowly in a straight line, c) move locally, d) no move).

NO/cGMP signal pathway = assay: ELISA of iNOS and cGMP in kidney-yang deficiency rats; assay type: in vivo, SD rats; conditions: CYCSE 60, 80 mg/kg; sildenafil 4.4 mg/kg; vs model group
Procedure: SD rats were randomly divided into 5 groups with 10 rats in each group. The SD rats were fed with 25 mg/kg hydrocortisone (HCT) for 10 days to construct a kidney-yang deficiency model, and then gave different concentrations of the CYCSE for 10 days. Specific groups were as follows: control group (distilled water 20 d); kidney-yang deficiency group (HCT 10 d+distilled water 10 […] low-concentration group (HCT 10 d+60 mg/kg […] high-concentration group (HCT 10 d+80 mg/kg […]); sildenafil group (HCT 10 d+4.4 mg/kg sildenafil 10 d). After treatment, the rats were anesthetized by intraperitoneal injection of 3% sodium pentobarbital. After the animal was anesthetized, blood was taken from the celiac artery and spontaneously coagulated for 25 min, and centrifuged at 2500 rpm/min for 10 min at 4° C. Supernatant was collected, namely serum samples. Contents of inducible nitric oxide synthase (iNOS), cyclic guanosine phosphate (cGMP) and testosterone in serum were detected according to instructions of rat ELISA test kit (BPRO, Shanghai, China).

[4] = system: testis tissue of kidney-yang deficiency rats; assay: Testicular tissue morphology (HE staining) in kidney-yang deficiency rats; assay type: in vivo, SD rats; conditions: HCT 10 d + 4.4 mg/kg sildenafil 10 d
Procedure: as §1, §2

[5] = system: kidney-yang deficiency rats; assay: Body weight, organ weight and routine indicators in hydrocortisone-induced kidney-yang deficiency rat model; assay type: in vivo, SD rats; conditions: HCT 10 d + 4.4 mg/kg sildenafil 10 d
Procedure: as §1, with “d); CYCSE” left out, “CYCSE 10 d); CYCSE” left out, “[…]);” for “CYCSE 10 d);”

[6] = system: mice with oligoasthenospermia induced by tripterygium glycosides; conditions: cited from earlier work

COc1cccc(-c2cc(=O)c3ccccc3o2)c1N [PD98059]
Effect of inhibitor on the protective effect of CYCSE on TM3 cell viability (TM3 cells): significantly block the protective effect | CYCSE-induced increase of p-ERK/ERK and p-AKT/AKT in TM3 cells with inhibitor [1]: significantly down-regulated

CCCc1nn(C)c2c(=O)[nH]c(-c3cc(S(=O)(=O)N4CCN(C)CC4)ccc3OCC)nc12 [Sildenafil]
Immunoexpression of 3β-HSD (testicular leydig cells) (testicular leydig cells): + | Cell viability of oxidation-damaged MCECs [2]: no salvage effect | Sperm number [3]: 4.63 ± 0.56^Δ *10^6/mL | Sperm motility a ([3]; grade a): 17.67 ± 2.05^Δ % | Sperm motility a + b ([3]; grades a + b): 37.67 ± 2.05^ΔΔ % | cGMP content (NO/cGMP signal pathway): no significant difference between the sildenafil group and the high concentration group | iNOS content (NO/cGMP signal pathway): no significant difference between the sildenafil group and the high concentration group | Diameter of seminiferous tubules [4]: 357.61 ± 8.03 μm | Germinal cell layer thickness [4]: 72.50 ± 5.47 μm | Body weight [5]: 329.37 ± 10.82 g | Epididymal weight [5]: 0.85 ± 0.01 g | Testicular weight [5]: 3.03 ± 0.06 g

C[C@@H]1CC[C@@]2(OC1)O[C@H]1C[C@H]3[C@@H]4CC=C5C[C@@H](O)CC[C@]5(C)[C@H]4CC[C@]3(C)[C@H]1[C@@H]2C [diosgenin]
Erectile latency [6]: shorten | MDA content in testicular tissues [6]: reduce | Organ coefficient of reproductive organs and immune organs [6]: improve | SOD activity in testicular tissues [6]: increase | Sperm quality [6]: improve
